In article PMC5521788, “In Vitro comparison of ^213Bi- and ^177Lu-radiation for peptide receptor radionuclide therapy” (PLoS ONE, 2017):

Experiments:
[1] = test system: BON cells; test: Clonogenic assay, BON cells; assay type: cell-based, human
Protocol: (§1) Before irradiation of the cells, 500 cells were seeded in 6-well plates (pre-coated with poly-l-lysine) 24 h before the experiment. […] After irradiation, internalization medium containing radioligand was removed. […] Every 2 or 3 d, medium was replaced by fresh culture medium. […] The 6-well plates containing colonies were scanned with a HP-scanner at 200 dpi. The colonies in each well were counted by a clonocounter. The survival was plotted as a function of absorbed dose and fitted to linear-quadratic (LQ) or linear-exponential curves. The cell absorbed dose during the incubation period was calculated with a dosimetry model of the 6-well plate, as described by Verwijnen et al.. The 3.5 cm diameter well cavity was modeled in the Monte Carlo radiation transport code Monte Carlo N-Particle […] (version 2.5.0, Los Alamos National Laboratory, USA) with homogeneously distributed radioactivity over the 2 mL volume aqueous liquid within the cavity.

[2] = test system: CA20948 cells; test: Clonogenic assay, CA20948 cells; assay type: cell-based, rat
Protocol: as §1, with “cavity. […] The division the layers of the well were as followed; 18 layers of 100 μm and 8 layers of 25 μm at the bottom of the well. […] D (25μm←fluid)=Ãfluid(1)×S(25μm←fluid)=∫T0TAfluide^-λtdt×S(25μm←fluid) […] The dosimetry for the specific uptake of radioactivity in the cells was calculated with the multicellular dosimetry code MIRD cell. […] Initially 500 cells were plated over the 9.62 cm^2 surface of the well. For evenly distributed cells over the surface the mean inter-cell distance would be 770 μm. In reality the cells were more clustered to the center of the well. […] The number of disintegrations within each cell (or Time-Integrated Activity per cell ã) was calculated by integration of the decay function of ^177Lu and ^213Bi and its progeny over the 12 d irradiation time multiplied by the ƒint and ƒmem per cell. This assumes that ƒmem will remain bound to the cells and ƒint remains trapped in the cell over a period of 12 d.” for “cavity.”

O=C([O-])CN(CCN(CC(=O)[O-])CC(=O)[O-])CCN(CC(=O)[O-])CC(=O)[O-].[213Bi+3] [^213Bi-DTPA]
RBE at D10 compared to ^137Cs irradiation [1]: 1.8 | LQ model parameter α ([1]; 1 h exposure, colonies after 12 d, n = 3): 0.87±0.1 /Gy | D10 (absorbed dose of 10% survival) ([1]; 1 h incubation, 12 d colony growth): 2.5 Gy | factor advantage in cell killing compared to ^177Lu-DOTATATE ([2]; 10% survival, CA20948 (abstract)): 6 | RBE at D10 compared to ^137Cs irradiation ([2]; CA20948): 2.0 | LQ model parameter α ([2]; CA20948, 1 h exposure, colonies after 12 d, n = 3): 0.74±0.08 /Gy | D10 (absorbed dose of 10% survival) ([2]; CA20948, 1 h incubation, 12 d colony growth): 2.6 Gy | RBE at 10% cell survival ([2]; in both low (BON) and high (CA20948) SSTR2 expressing cell lines): 1.5–2.0
